Assays:
SGLT1 = biological target: T1, SGLT1 (Homo sapiens, UniProt P13866); assay: SGLT1 activity measurement: 14C-AMG uptake in BHK cells transfected with SGLT1; format: cell-based; conditions: AMG 50 μM, 37° C., 90 min
T1 construct: expressed in transfected cells
T1 sequence (P13866 1-664): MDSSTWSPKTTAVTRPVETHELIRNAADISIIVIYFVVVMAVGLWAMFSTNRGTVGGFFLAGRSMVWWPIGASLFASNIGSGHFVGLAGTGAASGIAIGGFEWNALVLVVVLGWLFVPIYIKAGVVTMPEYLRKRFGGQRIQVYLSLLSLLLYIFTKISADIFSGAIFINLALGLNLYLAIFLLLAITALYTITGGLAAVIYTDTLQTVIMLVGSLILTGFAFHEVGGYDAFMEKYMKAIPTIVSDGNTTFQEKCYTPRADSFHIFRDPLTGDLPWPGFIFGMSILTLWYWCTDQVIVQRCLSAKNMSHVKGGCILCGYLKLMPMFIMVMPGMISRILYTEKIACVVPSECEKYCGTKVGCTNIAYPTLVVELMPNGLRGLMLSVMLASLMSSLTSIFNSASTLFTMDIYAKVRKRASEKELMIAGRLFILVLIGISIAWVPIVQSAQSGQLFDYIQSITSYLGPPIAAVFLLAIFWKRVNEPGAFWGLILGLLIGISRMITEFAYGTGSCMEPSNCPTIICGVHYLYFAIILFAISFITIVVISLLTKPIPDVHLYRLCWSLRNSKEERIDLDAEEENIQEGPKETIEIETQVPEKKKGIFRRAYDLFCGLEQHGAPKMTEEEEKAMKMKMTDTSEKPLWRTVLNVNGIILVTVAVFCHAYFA
Text: (§1) The compounds can be tested on their SGLT inhibition properties by means of BHK cells expressing SGLT1 and SGLT2. The production of the cells and the testing can be carried out as described below.
To construct the SGLT1 expression vector (KL225), the SLC5A1 gene (homologous to NM_000343) was amplified from a cDNA library using standard PCR technology and cloned over NheI/XhoI sites into pcDNA3.1 expression vector (Invitrogen) containing neomycin as a selection marker. In this vector, transcription uses the enhancer/promoter of human cytomegalovirus.
The final vector KL225 together with an additional vector containing a dihydrofolate reductase gene as a selection marker was introduced into cells. Transfection into BHK21 cells (ATCC CCL-10), cultivated in DMEM medium (GIBCO/BRL), supplemented with 10% foetal calf serum (FCS) and 20 mM glutamine, was carried out using calcium phosphate transfections according to Graham, F. L. and van der Ebb, A. J. (1973), Virology 52: 456 with 5-20 μg of uncut plasmids for 10^7 cells. Stable transfectants were selected in medium containing 1 mg/ml of G418 (GIBCO/BRL) and 20-5000 nM methotrexate as final concentration, where only cells which expressed the neomycin gene and overexpressed the dhfr gene were able to grow. After growth for 2-3 weeks, the cells were cloned (0.5 cells/well) and the clones were investigated for SGLT expression in the radioactive uptake assay. […]
(§2) A 96-well cell-based assay was developed and adapted to HTS requirements:
(§3) BHK cells (transfected with SGLT1 or SGLT2) were seeded into 96-well microtitre plates (Cultureplates, Perkin Elmer). After at least 24 h, medium was removed and the cell layer was washed with assay buffer (140 mM NaCl, 2 mM KCl, 1 mM CaCl2, 1 mM MgCl2, 10 mM HEPES, 5 mM Tris, adjusted with 1 M KOH to pH 7.4). After addition of 40 μl of assay buffer, 50 μl of AMG (50 μM for SGLT1 and 2 mM for SGLT2) in the presence or absence of compounds, the cells were incubated in a total volume of 100 μl at 37° C. for 90 min. Supernatant was removed by suction and discarded. The cells were washed and lysed by addition of 50 μl water. After 10 minutes at room temperature 200 μl Microscint 40 (Perkin Elmer) were added. The radioactivity was counted in a Topcount microplate scintillation counter (Perkin Elmer). The non-specific uptake was determined in sodium-free assay buffer (266 mM sucrose, 2 mM KCl, 1 mM CaCl2, 1 mM MgCl2, 10 mM HEPES, 5 mM Tris, adjusted with 1 M KOH to pH 7.4).

SGLT2 = biological target: T2, SGLT2 (Homo sapiens, UniProt P31639); assay: SGLT2 activity measurement: 14C-AMG uptake in BHK cells transfected with SGLT2; format: cell-based; conditions: AMG 2 mM, 37° C., 90 min
T2 construct: expressed in transfected cells
T2 sequence (P31639 1-672): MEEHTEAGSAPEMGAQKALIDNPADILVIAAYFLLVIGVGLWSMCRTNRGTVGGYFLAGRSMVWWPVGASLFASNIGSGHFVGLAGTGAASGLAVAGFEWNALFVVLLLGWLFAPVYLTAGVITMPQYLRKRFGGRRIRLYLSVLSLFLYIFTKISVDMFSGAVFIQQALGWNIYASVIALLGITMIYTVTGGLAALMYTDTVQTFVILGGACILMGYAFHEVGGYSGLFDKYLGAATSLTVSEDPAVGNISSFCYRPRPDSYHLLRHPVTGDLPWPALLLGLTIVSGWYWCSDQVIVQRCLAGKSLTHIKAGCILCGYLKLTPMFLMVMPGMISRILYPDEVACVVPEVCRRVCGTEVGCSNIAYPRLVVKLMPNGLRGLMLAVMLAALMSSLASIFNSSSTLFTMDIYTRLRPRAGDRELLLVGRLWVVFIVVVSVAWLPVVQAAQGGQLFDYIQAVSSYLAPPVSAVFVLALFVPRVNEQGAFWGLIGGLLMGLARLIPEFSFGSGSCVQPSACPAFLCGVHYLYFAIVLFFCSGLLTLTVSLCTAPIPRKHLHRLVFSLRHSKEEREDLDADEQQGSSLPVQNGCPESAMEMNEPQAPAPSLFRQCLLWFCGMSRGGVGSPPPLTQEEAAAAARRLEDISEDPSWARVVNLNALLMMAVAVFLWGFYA
Text: as §1
To construct the SGLT2 expression vector (KL224), the SLC5A2 gene (homologous to NM_003041) was amplified from a cDNA library using standard PCR technology and cloned over NheI/XhoI sites into PCI-neo expression vector (Promega) containing neomycin as a selection marker. In this vector, transcription used the enhancer/promoter of human cytomegalovirus and the SV40 polyadenylation signal.
The final vector KL224 together with an additional vector containing a dihydrofolate reductase gene as a selection marker was introduced into cells. Transfection into BHK21 cells (ATCC CCL-10), cultivated in DMEM medium (GIBCO/BRL), supplemented with 10% foetal calf serum (FCS) and 20 mM glutamine, was carried out using calcium phosphate transfections according to Graham, F. L. and van der Ebb, A. J. (1973), Virology 52: 456 with 5-20 μg of uncut plasmids for 10^7 cells. Stable transfectants were selected in medium containing 1 mg/ml of G418 (GIBCO/BRL) and 20-5000 nM methotrexate as final concentration, where only cells which expressed the neomycin gene and overexpressed the dhfr gene were able to grow. After growth for 2-3 weeks, the cells were cloned (0.5 cells/well) and the clones were investigated for SGLT expression in the radioactive uptake assay.
Principally, uptake of ^14C-α-methyl-D-glucopyranoside (AMG) in, for example, Xenopus oocytes injected with the corresponding cRNA has been described (for example Wen-Sen Lee et al. (1994), J. Biol. Chem. 269, 12032-12039; Guofeng You et al. (1995), J. Biol. Chem. 270, 29365-29371).
as §2, §3

| IC50 (SGLT1) [nM] | IC50 (SGLT2) [nM] | SMILES |
| --- | --- | --- |
| > 10000 | 10 to 1000 | CCc1cc(OCC(N)=O)cc(OCC(N)=O)c1-c1nc2ccccn2c1Nc1c(C)cccc1C [Compound A167, 2-[2-(Aminocarbonylmethoxy)-4-(amino-carbonylmethoxy)-6-ethylphenyl]-3-(2,6-dimethylphenylamino)imidazo[1,2-a]pyridine] |
| 1000 to 10000 | 10 to 1000 | Cc1cccc(C)c1Nc1c(-c2c(OCC(N)=O)ccc3ccccc23)nc2ccccn12 [Compound A181, 2-{1-[3-(2,6-Dimethylphenylamino)imidazo-[1,2-a]pyridin-2-yl]naphthalen-2-yloxy}acetamide] |
| > 10000 | 10 to 1000 | Cc1cccc(C)c1Nc1c(-c2c(C)cc(OS(=O)(=O)N(C)C)cc2OCC(N)=O)nc2ccc(F)cn12 [Compound A213] |
| 1000 to 10000 | 1000 to 10000 | COc1cc(C)c(-c2nc3ccc(F)cn3c2Nc2c(C)cc(Br)c(C)c2Br)c(OCC(N)=O)c1 [Compound A249, 2-[2-(Aminocarbonylmethoxy)-4-methoxy-6-methylphenyl]-3-(2,5-dimethyl-4,6-dibromophenylamino)-6-fluoroimidazo[1,2-a]-pyridine] |
| 1000 to 10000 | 10 to 1000 | CCc1cc(O)cc(OCC(N)=O)c1-c1nc2ccc(F)cn2c1Nc1c(C)cccc1C [Compound A102, 2-[2-(Aminocarbonylmethoxy)-6-ethyl-4-hydroxy-phenyl]-3-(2,6-dimethylphenylamino)-6-fluoro-imidazo[1,2-a]pyridine] |
| > 10000 | 10 to 1000 | CCc1cc(OCCO)cc(OCC(N)=O)c1-c1nc2ccc(F)cn2c1Nc1c(C)cccc1C [Compound A195, 2-[2-(Aminocarbonylmethoxy)-4-(2-hydroxy-ethoxy)-6-ethylphenyl]-3-(2,6-dimethylphenyl-amino)-6-fluoroimidazo[1,2-a]pyridine] |
| 1000 to 10000 | 10 to 1000 | COc1cc(C)c(-c2nc3ccc(F)cn3c2Nc2c(C)cccc2[N+](=O)[O-])c(OCC(N)=O)c1 [Compound A232, 2-[2-(Aminocarbonylmethoxy)-4-methoxy-6-methylphenyl]-3-(2-methyl-6-nitrophenylamino)-6-fluoroimidazo[1,2-a]pyridine] |
| 1000 to 10000 | 10 to 1000 | COc1cc(C)c(-c2nc3ccc(F)cn3c2Nc2c(C)cccc2C(F)(F)F)c(OCC(N)=O)c1 [Compound A236, 2-[2-(Aminocarbonylmethoxy)-4-methoxy-6-methylphenyl]-3-(2-methyl-6-trifluoromethyl-phenylamino)-6-fluoroimidazo[1,2-a]pyridine] |
| > 10000 | 10 to 1000 | CCc1cc(OC)cc(OCC(N)=O)c1-c1nc2ccc(F)cn2c1Nc1c(C)cccc1C(F)(F)F [Compound A247, 2-[2-(Aminocarbonylmethoxy)-4-methoxy-6-ethylphenyl]-3-(2-methyl-6-trifluoromethylphenyl-amino)-6-fluoroimidazo[1,2-a]pyridine] |
| 1000 to 10000 | 10 to 1000 | CCc1cc(OC)cc(OCC(N)=O)c1-c1nc2ccc(F)cn2c1Nc1c(F)cccc1F [Compound A220, 2-[2-(Aminocarbonylmethoxy)-4-methoxy-6-ethylphenyl]-3-(2,6-difluorophenylamino)-6-fluoroimidazo[1,2-a]pyridine] |
| 1000 to 10000 | 10 to 1000 | COc1cc(C)c(-c2nc3c(F)cc(F)cn3c2Nc2c(C)cccc2C)c(OCC(N)=O)c1 [Compound A237, 2-[2-(Aminocarbonylmethoxy)-4-methoxy-6-methylphenyl]-3-(2,6-dimethylphenylamino)-6,8-difluoroimidazo[1,2-a]pyridine] |
| > 10000 | 10 to 1000 | COc1cc(C)c(-c2nc3ccc(F)cn3c2Nc2c(C)cccc2OC)c(OCC(N)=O)c1 [Compound A214, 2-[2-(Aminocarbonylmethoxy)-4-methoxy-6-methylphenyl]-3-(2-methoxy-6-methylphenyl-amino)-6-fluoroimidazo[1,2-a]pyridine] |
| > 10000 | 10 to 1000 | Cc1cc(C)c(-c2nc3ccccn3c2Nc2c(C)cccc2C)c(OCC(N)=O)c1 [Compound A168, 2-[2-(Aminocarbonylmethoxy)-4,6-dimethyl-phenyl]-3-(2,6-dimethylphenylamino)imidazo-[1,2-a]pyridine] |
| > 10000 | 1000 to 10000 | Cc1cccc(C)c1Nc1c(-c2c(O)cccc2OCC(N)=O)nc2ccccn12 [Compound A176, 2-[2-(Aminocarbonylmethoxy)-6-hydroxyphenyl]-3-(2,6-dimethylphenylamino)imidazo[1,2-a]-pyridine] |
| 1000 to 10000 | 10 to 1000 | Cc1cc(C)c(-c2nc3ccc(F)cn3c2Nc2c(C)cccc2C)c(OCC(N)=O)c1 [Compound A169, 2-[2-(Aminocarbonylmethoxy)-4,6-dimethyl-phenyl]-3-(2,6-dimethylphenylamino)-6-fluoro-imidazo[1,2-a]pyridine] |
| > 10000 | 10 to 1000 | Cc1cccc(Cl)c1Nc1c(-c2ccccc2OCC(N)=O)nc2ccccn12 [Compound A6, 2-[2-(Aminocarbonylmethoxy)phenyl]-3-(2-chloro-6-methylphenylamino)imidazo[1,2-a]-pyridine] |

Source: patent publication US8258151B2, “3-aminoimidazo [1,2-A] pyridine derivatives as SGLT inhibitors” (Merck Patent GmbH, priority 2006, dated 2012)
